From a melting point compilation (Tetko et al.; mined from patent text by program, amines drawn as free bases though some values may be those of a salt) come the findings set out here.

The compound `CCc1ccc2c(c1)cc(C(=O)Nc1nc(-c3c(OC)cc(C)cc3OC)n(CCC3CCCCC3)n1)n2CC(=O)OC` came in with a melting point of 191 °C.
The same measure for `CCOC(=N)c1sc2cc(Cl)ccc2c1O`: 226 °C; for `COC(=O)CCCOc1cc(C(C)C)c2c(c1)S(=O)(=O)N(COC(=O)c1ccccc1)C2=O`: 122 to 124 °C.
The value for `CCOc1cc([C@@H](CCN(O)C(N)=O)N2Cc3cccc(NC(=O)C(C)C)c3C2=O)ccc1OC` was 137 to 139 °C.
The same measure for `N#Cc1cnn(-c2ccccn2)c1SCc1ccccc1`: 110 to 115 °C; for `C=Cc1cc(C)cc(C)c1CC(=O)NC1(C(=O)OC)CCN(OC)CC1`: 142 to 144 °C; for `Cc1cc2oc(=O)c3c(c2cc1C)CCN(CC(C)N(C)C)C3` (stereo not drawn): 105 to 107 °C.
`Cc1ccc(S(=O)(=O)n2ccc3c(OCC4CO4)cccc32)cc1` (stereo not drawn) registered a melting point of 109 to 112 °C.
The compound `COc1ccc(Cl)cc1C(=N)Nc1cc(Cl)cc(NC(=O)/C=C/c2ccccc2Cl)c1` showed a melting point of 226 to 228 °C.
`CCCc1nc2c(N)nc3ccc(C)cc3c2s1`: the melting point fell in the range of 147 to 149 °C.
The value for `COc1ccc2c(c1)CCN(CCc1ccc(NC=O)cc1)C2C` (stereo not drawn) was 93 to 96 °C; that for `COc1cc2c(cc1OCc1ccccc1)[nH]c1cc(-c3ccccc3Cl)c3c(c12)C(=O)NC3=O` was 260 to 264 °C; that for `C[Si](C)(Cc1ccccc1)CN1C(=O)c2ccccc2C1=O` was 91 to 92 °C.
The value for `Cn1nc(-c2ccc3c(c2)CCN(C2CCC2)CC3)ccc1=O` was 287 to 288 °C; that for `CCOC(=O)C1=C(C)NC(C)=C(C(=O)OCC)C1c1ccc(OCCCN(C)C)c(OC)c1` was 62 °C.
The same measure for `CCOC(=O)C1=Cc2cc(S(=O)(=O)Cl)ccc2OC1C(F)(F)F` (stereo not drawn): 97.2 to 98.4 °C; for `Cc1cc(C2(c3ccc(O)cc3)c3ccccc3-c3ccccc32)cc(C)c1O`: 90 to 105 °C; for `CC1(c2ccccc2)OC(C=Cc2ccncc2)=CC1=O` (stereo not drawn): 165 to 166 °C.
For `CN1CCCCC1C(NC(=O)Nc1ccc2[nH]ncc2c1)c1cc(F)cc(Cl)c1` (stereo not drawn), the melting point came to 192 °C.
The value for `Cc1ccc(I)c(C(O)(C(F)(F)F)C(F)(F)F)c1` was 38 to 39 °C; that for `CCCCOCCOc1ccc(-c2ccc3c(c2)C=C(C(=O)Nc2ccc(SCc4ncon4)cc2)CCN3CC(C)C)cc1` was 112 to 115 °C; that for `Cc1c2c(cc3c(=O)c4ccccc4oc13)CC(C(=O)O)O2` (stereo not drawn) was 297 to 299 °C.
The compound `O=C(CCc1ccccc1)Nc1cc(-c2nnc(CCc3cccc(F)c3)o2)ccn1` came in with a melting point of 171 to 172 °C.
The value for `CO[C@](C)(c1cc(F)cc(OCc2ccc3ccccc3c2)c1)[C@H](C)O` (racemic) was 62 to 63 °C.
As for `CC1(C)CC(=O)N(CCOC(OCCN2C(=O)CC(C)(C)CC2=O)(C(=O)c2ccccc2)c2ccccc2)C(=O)C1`, the melting point came out at 130 °C.
The same measure for `Cc1ccc(N2CC(=O)N(C)C(=O)N2)cc1`: 193 to 194 °C; for `O=C1C(Cc2ccccc2CF)c2ccccc2C12COc1cc3c(cc12)OCCO3` (stereo not drawn): 188 to 190 °C; for `CC(C)Cc1n[nH]c2c1c(=O)n(-c1ccccc1)c1ncccc21`: 217 to 220 °C.
The value for `C=CCOc1ccc2c(c1)CCC(=O)N2` was 123 to 125 °C; that for `C#CCOc1cc(N=C(C=NOC)N2CCCC2)c(F)cc1Cl` was 73 to 75 °C; that for `Cc1cc(OCC(=O)NCc2ccccc2)ccc1N1CC(=O)NS1(=O)=O` was 70 to 90 °C.
The same measure for `CC(O)c1cc2c(=O)n(NS(C)(=O)=O)c(=O)[nH]c2cc1C(F)(F)F` (stereo not drawn): 263 to 268 °C; for `CCc1oc2ccc([N+](=O)[O-])cc2c1C(=O)c1ccc(O)cc1`: 152 °C; for `COc1ccc2[nH]c(C(C)=O)cc2c1`: 164 to 167 °C.
`CC(C)(CO)NS(=O)(=O)c1cc([N+](=O)[O-])c(Cl)s1` came in with a melting point of 113 °C.
Compound `CC(=O)OC1CSC(Oc2ccc(-c3ccncc3)nc2F)C(OC(C)=O)C1OC(C)=O` (stereo not drawn) returned a melting point of 164 °C.
For `O=C(CCl)c1ccc2c(c1)Cc1cc(C(=O)CCl)ccc1O2`, the melting point fell in the range of 200 to 201 °C.
The value for `CCN(CC)C(=O)CC1CCN(Cc2cnc3cc(NC(=O)c4ccc(-c5ccc(F)cc5)cc4)c(C)cc3c2)CC1` was 197 °C; that for `Oc1ccc(Oc2ccc(C(F)(F)F)cc2Cl)cc1` was 55 to 56 °C; that for `O=C(O)c1ccc(O)c(C(O)C(Cl)Cl)c1` (stereo not drawn) was 214 to 215 °C.
In turn, `O=C1c2cccc(Oc3ccc(Cl)cc3)c2C(=O)N1Cc1cccnc1` showed a melting point of 193 to 194 °C.
The value for `CCCCc1cn(C)cc(-c2cccc(C(F)(F)F)c2)c1=O` was 82.5 to 84 °C.
The value for `CCN(CC)c1cc(-c2ccccc2)nc2nn(-c3ccccc3)cc12` was 148 to 149 °C; that for `N=C(NCc1c[nH]c2ccccc12)C(Cl)(Cl)Cl` was 136 to 138 °C.
`COCCN1CCN(C(C)c2ccc(-c3ccc(F)cc3)cc2)CC1` (stereo not drawn) came in with a melting point of 61 to 62 °C.
The value for `Cn1nnnc1CC(=O)c1ccc(C(F)(F)F)cc1N` was 200 to 201 °C.
The compound `Cc1nc2ccc(NS(=O)(=O)c3cccc(Cl)c3C)cc2nc1C` yielded a melting point of 225 to 226 °C.
The value for `ON=C(Cc1ccccc1)c1ccc(Cl)c(Cl)c1` was 81 to 82 °C; that for `CC1Cc2ccc([Si](C)(C)C)c(S(=O)(=O)NC(C)(C)C)c2S1` (stereo not drawn) was 119 to 124 °C.
The same measure for `CN(C(=O)OCc1ccccc1)c1ccc2c(c1)C(=O)C1(CC1)O2`: 79 to 81 °C.
The value for `COC(=O)CC1CC(c2ccc(C(=N)NC(=O)OC(C)(C)C)cn2)=NO1` (stereo not drawn) was 143 °C.
In turn, `CCn1cnc2c(Nc3cccc(C#N)c3)nc(Cl)nc21` gave a melting point of 189 °C.
In the case of `CCOC(=O)c1cc(CC)sc1Nc1cc(F)c(F)cc1[N+](=O)[O-]`, the melting point turned out to be 105 °C.
The same measure for `Cc1c(C(N)=O)sc2cncc(Oc3ccc(Br)cc3)c12`: 78 to 80 °C; for `O=C(Oc1cc(Cl)ccc1Cl)c1cc2ccccc2oc1=O`: 189 to 192 °C; for `CCOC(=O)c1ncn2c1CN=C(c1ccccc1)c1cc(Cl)ccc1-2`: 174 to 175 °C.
The same measure for `CCCc1nc(NC)nc(N2CCOCC2)n1`: 131 to 133 °C; for `CN1CCC(O)(c2ccccc2C(O)c2ccccc2)CC1` (stereo not drawn): 190 to 191 °C.
Regarding `OC(Cc1ccc(C(F)(F)F)cc1)(Cn1ccnc1)Cn1cncn1` (stereo not drawn), the melting point is 159 to 161 °C.
The same measure for `Cn1c(=O)c(-c2ccc(Cl)cc2Cl)cc2c3cc(-c4cc(N)n[nH]4)ccc3n(C)c21`: 284 to 286 °C; for `COc1ccc2c(c1)CCC1C2CCC2(C)C(NCc3ccc(O)c(OC)c3)CCC12` (stereo not drawn): 169 to 170 °C.
In turn, `CCCCCCCCCCCCCCCCCCNC(=O)OCC(CNS(=O)(=O)CCCCl)COC` (stereo not drawn) yielded a melting point of 72 to 73 °C.
The value for `COc1ccc(OCc2ccccn2)cc1/C=C/c1cc(/C=C/c2ccc3[nH]ccc3c2)n[nH]1` was 116 to 122 °C.

Broadly, the melting point is the temperature, or range, at which the solid turns liquid.
